The source of these data is US20230355647A1, “Marker for determining anti-cancer effects of mitochondrial oxidative phosphorylation pathway inhibitor” (NANJING SHIJIANG MEDICINE TECHNOLOGY CO., LTD, priority 2020, published 2023).

Where only a bound is given, the exact number is not on record here.

One assay has as its system HCC15. The assay is described as follows: Cell viability (CellTiter-Glo), HCC15. The class given is cell-based. The note with it: HCC15 cell line, 3-4 days of culture. How it is done:
(§1) Cell viability was detected using the Promega CellTiter-Glo kit, the kit reflected cell viability by directly measuring intracellular ATP content. The inhibitory effect (IC50 value) of Gboxin, a mitochondrial oxidative phosphorylation pathway inhibitor, on different tumor cell lines was tested in the Example. The name, source, and culture condition of each tumor cell line were as follows:
Cell line HCC15 (KCLB, No. 70015) was cultured in 10% fetal bovine serum-containing RPMI1640 medium (+P/S).
(§2) The above tumor cells were cultured in the relevant medium (+P/S), and incubated for 3 h, then the gradient diluted Gboxin was added, and IC50 (50% inhibiting concentration) was measured after 3-4 days of culture.

A further assay relates to HH. Kind of assay: Cell viability (CellTiter-Glo), HH. The class given is cell-based. The note with it: Homo sapiens; HH cell line, 3-4 days of culture. How it is done:
as §1
Cell line HH (ATCC, No. CRL-2105) was cultured in 10% fetal bovine serum-containing RPMI1640 medium (+P/S).
as §2

The subject of the next assay is SU-DHL-2. Kind of assay: Cell viability (CellTiter-Glo), SU-DHL-2. The class given is cell-based. The note with it: Homo sapiens; SU-DHL-2 cell line, 3-4 days of culture. The method, then: as §1
Cell line SU-DHL-2 (ATCC, No. CRL-2956) was cultured in 10% fetal bovine serum-containing RPMI1640 medium (+P/S).
as §2

Another assay has as its system NCI-H196. Kind of assay: Cell viability (CellTiter-Glo), NCI-H196. The class given is cell-based. The note with it: NCI-H196 cell line, 3-4 days of culture. How it is done: as §1
Cell line NCI-H196 (ATCC, No. CRL-5823) was cultured in 10% fetal bovine serum-containing RPMI1640 medium (+P/S).
as §2

For a further assay, the system named is A-375. The assay is described as follows: Cell viability (CellTiter-Glo), A-375. The class given is cell-based. The note with it: Homo sapiens; A-375 cell line, 3-4 days of culture. The method, then:
as §1
Cell line A-375 (ATCC, No. CRL-1619) was cultured in 10% fetal bovine serum-containing DMEM medium (+P/S).
as §2

The test system of the next assay is U-937. The assay is described as follows: Cell viability (CellTiter-Glo), U-937. The class given is cell-based. The note with it: Homo sapiens; U-937 cell line, 3-4 days of culture. The method, then:
as §1
Cell line U-937 (ATCC, No. CRL-1593.2) was cultured in 10% fetal bovine serum-containing RPMI1640 medium (+P/S).
as §2

In assay [1] the test system is brain tumors and other tumors. The note with it: study published in Nature (2019); cited from earlier work.
The next assay concerns CHL-1. Kind of assay: Cell viability (CellTiter-Glo), CHL-1. The class given is cell-based. The note with it: Homo sapiens; CHL-1 cell line, 3-4 days of culture. The method, then: as §1
Cell line CHL-1 (ATCC, No. CRL-9446) was cultured in 10% fetal bovine serum-containing DMEM medium (+P/S).
as §2

The subject of a further assay is ATF4 stress pathway. The assay is described as follows: Western Blot of ATF4 in tumor cells after inhibitor treatment. The class given is cell-based, human. The note with it: 1 μM or 3 μM Gboxin, 1 μM Oligomycin A, 12 h; for activity of ATF4 stress pathway: FIG. 3; for ATF4 stress pathway (ATF4 content): FIG. 2. How it is done: The inhibition of mitochondrial oxidative phosphorylation pathway could cause the activation of ATF4 stress pathway and the decrease of mTOR pathway activity, the activity of the mTOR pathway was reflected by the expression level of phosphorylated ribosomal protein S6 (ie, p-S6).
The tumor cells NCI-H82, G-401 and WSU-DLCL2 were cultured in the relevant 10% FBS-containing medium (+p/s), and incubated overnight, then 1 μM Gboxin, 3 μM Gboxin or 1 μM Oligomycin A as shown in FIG. 2 was added. After 12 h of incubation, the content of ATF4 and p-S6 protein was detected using Western Blot, the experiment result was shown in FIG. 2.
The cell lines SF126, CFPAC-1 and 786-O were cultured in the relevant 10% FBS-containing medium (+p/s), and incubated overnight, then 1 μM Gboxin, 3 μM Gboxin or 1 μM Oligomycin A as shown in FIG. 3 was added. After 12 h of incubation, the content of ATF4 and p-S6 protein was detected using Western Blot, the experiment result was shown in FIG. 3.

In the next assay the test system is D283 Med. Kind of assay: Cell viability (CellTiter-Glo), D283 Med. The class given is cell-based. The note with it: Homo sapiens; D283 Med cell line, 3-4 days of culture. The method, then:
as §1
Cell line D283 Med (ATCC, No. HTB-185) was cultured in 10% fetal bovine serum-containing EMEM medium (+P/S).
as §2

For the next assay, the system named is GB-1. Kind of assay: Cell viability (CellTiter-Glo), GB-1. The class given is cell-based. The note with it: Homo sapiens; GB-1 cell line, 3-4 days of culture. How it is done:
as §1
Cell line GB-1 (JCRB, No. IFO50489) was cultured in 10% fetal bovine serum-containing DMEM medium (+P/S).
as §2
Cell viability was detected using the Promega CellTiter-Glo kit, the kit reflected cell viability by directly measuring intracellular ATP content. In this experiment, the IC50 values of Oligomycin A or IACS-010759, a mitochondrial oxidative phosphorylation pathway inhibitor, on different tumor cells was determined.
The different tumor cells were cultured in the relevant medium (+P/S) as shown in Example 2, and incubated for 3 h, then the gradient diluted Oligomycin A or IACS-010759 was added respectively, and IC50 (50% inhibiting concentration) of Oligomycin A or IACS-010759 on different tumor cells was measured after 3-4 days of culture.

For another assay, the system named is 22RV1. The assay is described as follows: Cell viability (CellTiter-Glo), 22RV1. The class given is cell-based. The note with it: Homo sapiens; 22RV1 cell line, 3-4 days of culture. The method, then: as §1
Cell line 22RV1 (ATCC, No. CRL-2505) was cultured in 10% fetal bovine serum-containing RPMI1640 medium (+P/S).
as §2

A further assay deals with G-402. The assay is described as follows: Cell viability (CellTiter-Glo), G-402. The class given is cell-based. The note with it: Homo sapiens; G-402 cell line, 3-4 days of culture. The method, then:
as §1
Cell line G-402 (ATCC, No. CRL-1440) was cultured in 10% fetal bovine serum-containing McCoy's 5a medium (+P/S).
as §2

Another assay relates to HCC70. Kind of assay: Cell viability (CellTiter-Glo), HCC70. The class given is cell-based. The note with it: Homo sapiens; HCC70 cell line, 3-4 days of culture. How it is done: as §1
Cell line HCC70 (ATCC, No. CRL-2315) was cultured in 10% fetal bovine serum-containing RPMI1640 medium (+P/S).
as §2

The next assay has as its system Jurkat, Clone E6-1. The assay is described as follows: Cell viability (CellTiter-Glo), Jurkat, Clone E6-1. The class given is cell-based. The note with it: Homo sapiens, Clone E6-1 cell line, 3-4 days of culture. How it is done:
as §1
Cell line Jurkat, Clone E6-1 (ATCC, No. TIB-152) was cultured in 10% fetal bovine serum-containing RPMI1640 medium (+P/S).
as §2

For the compound `CCc1n(CC(=O)O[C@@H]2C[C@H](C)CC[C@H]2C(C)C)c2ccccc2[n+]1C.[Cl-]` [Gboxin], the IC50 in the assay on HCC15 was 2.26 µM; in the assay on HH, 2.67 µM; in the assay on SU-DHL-2 it was 0.97 µM; in the assay on NCI-H196, 19.3 µM; with A-375 it was 4.65 µM; in the assay on U-937, 4.06 µM. For the same compound, the IC50 is 7.68 µM with CHL-1; 4.81 µM in the assay on D283 Med; > 30 µM in the assay on GB-1; 2.53 µM with 22RV1; 2.82 µM with G-402; 11.2 µM in the assay with HCC70. The same compound yielded an IC50 in the assay with Jurkat, Clone E6-1 of 3.51 µM. For the same compound, in assay [1], the “killing effect on brain tumors and other tumors” value is given as “excellent killing effect”. For the same compound, the “activity of ATF4 stress pathway” value with ATF4 stress pathway (786-O cells), with ATF4 stress pathway (CFPAC-1 cells) and with ATF4 stress pathway (SF126 cells) was “no significant changes” each time. Also, the “ATF4 stress pathway (ATF4 content)” value in the assay with ATF4 stress pathway (G-401 cells), in the assay with ATF4 stress pathway (NCI-H82 cells) and in the assay with ATF4 stress pathway (WSU-DLCL2 cells) was “up-regulated” each time.
